What was measured:
HSV-1 = experiment: Fractionation and in situ localization of virus DNA; format: cell-based, HSV-1 Glasgow strain 17; details: 100 μg/ml cycloheximide, 1 hpi
HSV = details: cited from earlier work

Molecule | virus DNA associated with the nuclear fraction versus no drug control (HSV-1) | HSV attachment / virus binding (HSV) | step inhibited instead of binding (HSV) | cell-to-cell spread of HSV (HSV)
C[C@@H]1C[C@@H]([C@H](O)CC2CC(=O)NC(=O)C2)C(=O)[C@@H](C)C1 [cycloheximide, reference compound] | no effect on the amount of virus DNA associated with the nuclear fraction |  |  | 
Heparin |  | can block attachment |  | 
CCCCCCCCCCCCCCCCCCCCCCO [n-docosanol] |  | does not inhibit virus binding | fusion of the virus envelope with the cell's plasma membrane | 
Cc1ccc(C(=O)Nc2ccc(S(=O)(=O)O)c3cc(S(=O)(=O)O)cc(S(=O)(=O)O)c23)cc1NC(=O)c1cccc(NC(=O)Nc2cccc(C(=O)Nc3cc(C(=O)Nc4ccc(S(=O)(=O)O)c5cc(S(=O)(=O)O)cc(S(=O)(=O)O)c45)ccc3C)c2)c1 [Sumarin] |  | able to block HSV attachment |  | able to inhibit cell-to-cell spread

Reference: US6756368B1, “Use of cobalt chelates for treating or preventing virus infection” (The Trustees of Columbia University in the City of New York, priority 1999, dated 2004)
